Data: patent US11672794B2, “Therapeutic targeting of the BAP1 complex in cancer” (NORTHWESTERN UNIVERSITY, priority 2019, dated 2023)

Key:
[1] = molecular target: T1, recombinant BAP1 (Homo sapiens, UniProt Q92560); assay: Ub-AMC assay of BAP1 deubiquitinase activity; format: biochemical; conditions: 100 nM Ub-AMC, 0.1 nM recombinant BAP1
T1 construct: made in house; host or cells: bacteria
T1 sequence (Q92560 1-729): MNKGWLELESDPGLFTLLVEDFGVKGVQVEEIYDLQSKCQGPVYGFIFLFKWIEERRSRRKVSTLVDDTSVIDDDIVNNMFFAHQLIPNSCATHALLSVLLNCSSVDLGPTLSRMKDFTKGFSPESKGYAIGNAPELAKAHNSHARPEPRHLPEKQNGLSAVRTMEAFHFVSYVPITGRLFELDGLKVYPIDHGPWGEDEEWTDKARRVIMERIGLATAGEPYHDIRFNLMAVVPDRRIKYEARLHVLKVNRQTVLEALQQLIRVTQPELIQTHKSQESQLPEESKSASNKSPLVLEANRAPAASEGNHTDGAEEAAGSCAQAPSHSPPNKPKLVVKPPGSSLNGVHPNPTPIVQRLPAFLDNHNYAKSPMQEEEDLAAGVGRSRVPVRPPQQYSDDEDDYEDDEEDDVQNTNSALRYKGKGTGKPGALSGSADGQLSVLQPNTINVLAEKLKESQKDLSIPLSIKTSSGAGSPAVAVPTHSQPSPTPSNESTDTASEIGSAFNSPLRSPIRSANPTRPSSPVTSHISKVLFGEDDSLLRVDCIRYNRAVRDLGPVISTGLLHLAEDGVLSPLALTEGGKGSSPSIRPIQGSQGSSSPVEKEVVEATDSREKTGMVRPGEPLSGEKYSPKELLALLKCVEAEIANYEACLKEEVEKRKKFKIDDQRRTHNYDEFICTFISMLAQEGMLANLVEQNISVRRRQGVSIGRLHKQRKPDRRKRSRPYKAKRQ
Text: (§1) Since the truncated ASXL1 functions as co-activator of BAP1 in human leukemic cells, and based on previous studies, mutations in ASXL1 lead to the hyper-activation of BAP1 in mice (16), we sought to identify small molecule inhibitors that inhibit BAP1 catalytic activity. Although crucial catalytic residues in BAP1 have been identified through general homology with other deubiquitinases, a detailed atomic resolution structure of BAP1 has yet to be determined. Therefore, because a structure-based approach is currently unattainable, we adopted a structure-agnostic unbiased biochemical screen for small molecule inhibitors of BAP1′s deubiquitinase activity. Toward this goal, we employed an Ubiquitin- 7-amino-4-methylcoumarin (Ub-AMC) screening platform. Ubiquitin-AMC (Ub-AMC) is a fluorogenic substrate for ubiquitin hydrolases based on the C-terminus derivatization of ubiquitin with 7-amido-4-methylcoumarin (AMC). Upon incubation with a protease recognizing Ubiquitin, such as BAP1, AMC is released and the increase in fluorescence can be measured (7, 17) (FIG. 4A). We optimized the screening condition and finally used 100 nM Ub-AMC and 0.1 nM recombinant BAP1 (FIG. 10A) for the reaction (FIG. 10B). The top 1% hits from 3,000 of 8-compound mixtures were subjected for a secondary validation (FIG. 10C, D). […]

[2] = system: 293T-ASXL1-Y591* mutant cells vs 293T-ASXL1-WT cells; assay: Cell viability (cell counting) of 293T-ASXL1-WT and 293T-ASXL1-Y591* mutant cells, 72 hours; format: cell-based, human; conditions: cell counting assay
Experimental: FIG. 11. Analog for compound #7152836 A) Structure of 16 analogs for compound #7152836. B) Dose-dependent inhibition of BAP1 activity the analogs in (A) in Ub-AMC assay. C) 293T-ASXL1-WT, 293T-ASXL1-Y591* mutant cells were treated with different concentrations of Doxorubicin, HSP90 inhibitor PU-H71, UCHLS inhibitor b-AP1 and iBAP for 72 hours. The cell viability was determined by cell counting assay.
as §1, with “Ubiquitin-AMC (Ub-AMC) is a fluorogenic substrate for ubiquitin hydrolases based on the C-terminus derivatization of ubiquitin with 7-amido-4-methylcoumarin (AMC).” left out, “4A).” for “4A). We optimized the screening condition and finally used 100 nM Ub-AMC and 0.1 nM recombinant BAP1 (FIG. 10A) for the reaction (FIG. 10B). The top 1% hits from 3,000 of 8-compound mixtures were subjected for a secondary validation (FIG. 10C, D).”

With COc1ccccc1C(=O)NC(=S)Nc1ccc2oc(-c3cc(F)c(F)cc3Cl)nc2c1 [#7231120] the “inhibition of BAP1 catalytic activity in vitro” value [1] was “could efficiently inhibit BAP1 catalytic activity”.
C=CC(=O)N1C/C(=C\c2ccc([N+](=O)[O-])cc2)C(=O)/C(=C/c2ccc([N+](=O)[O-])cc2)C1 [UCHLS inhibitor] was tested, and the “difference of cell viability between ASXL1 wild type and mutant cells” value [2] was “did not observe any significant difference”.
